Reference: patent US12214036B2, “Combination therapy comprising AXL/MER and PD-1/PD-L1 inhibitors” (Incyte Corporation, priority 2020, dated 2025)

Molecular target: T1, MER (Homo sapiens, UniProt Q12866)
T1 sequence (Q12866 21-999): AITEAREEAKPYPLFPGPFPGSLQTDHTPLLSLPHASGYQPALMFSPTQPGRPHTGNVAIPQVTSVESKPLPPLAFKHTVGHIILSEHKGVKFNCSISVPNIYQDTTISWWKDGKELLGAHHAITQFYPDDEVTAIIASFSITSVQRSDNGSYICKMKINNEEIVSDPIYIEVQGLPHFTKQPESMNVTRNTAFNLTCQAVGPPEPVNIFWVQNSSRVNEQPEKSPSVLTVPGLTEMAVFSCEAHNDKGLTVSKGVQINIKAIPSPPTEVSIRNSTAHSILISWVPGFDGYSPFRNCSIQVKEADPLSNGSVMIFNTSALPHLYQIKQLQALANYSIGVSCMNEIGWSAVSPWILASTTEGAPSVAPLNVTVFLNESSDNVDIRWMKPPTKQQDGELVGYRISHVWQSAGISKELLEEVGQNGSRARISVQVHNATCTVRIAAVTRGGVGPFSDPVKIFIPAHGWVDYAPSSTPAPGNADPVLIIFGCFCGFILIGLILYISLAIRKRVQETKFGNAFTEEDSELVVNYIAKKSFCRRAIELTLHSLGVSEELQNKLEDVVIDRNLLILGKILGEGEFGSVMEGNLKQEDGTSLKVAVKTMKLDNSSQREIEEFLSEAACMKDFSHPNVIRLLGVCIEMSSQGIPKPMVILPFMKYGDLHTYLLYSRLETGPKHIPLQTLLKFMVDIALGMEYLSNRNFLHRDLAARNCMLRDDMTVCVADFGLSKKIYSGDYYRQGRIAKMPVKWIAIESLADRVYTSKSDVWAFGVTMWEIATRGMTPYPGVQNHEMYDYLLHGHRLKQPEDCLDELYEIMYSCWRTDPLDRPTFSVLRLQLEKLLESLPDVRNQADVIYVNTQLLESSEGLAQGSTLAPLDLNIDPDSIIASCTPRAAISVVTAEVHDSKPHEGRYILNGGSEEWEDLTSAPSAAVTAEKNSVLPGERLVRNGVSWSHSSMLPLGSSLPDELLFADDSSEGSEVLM
Assay: Phospho-MER inhibition assay in G361 cells (ELISA)
Format: cell-based
Parameters: G361 cells, a melanoma cell line expressing high level of MER kinase; endogenous in cells; host or cells: G361
Conditions: G361 melanoma cells, N=2 (FIG. 3); read-out: IC50, MER phosphorylation induced by MAB8912
Method: The potency of Compound 1 in blocking MER auto-phosphorylation was evaluated in G361 cells, a melanoma cell line expressing high level of MER kinase.
Newly thawed G361 cells were allowed to recover for three passages before use, and only cells within 20 passages after thawing were used in the assay. Cells were kept under nonconfluent conditions and used in log-phase growth. Two mL of 1×10^6 cells/mL (2×10^6 cells/well) G361 cells were added to a six-well tissue-culture plates (Corning Incorporated; #3961) for 2 days. At the time of the assay, 1 mL of medium was added to each well. […] The optical density of the plate was measured using a Molecular Devices SpectraMax Plus microplate reader (Molecular Devices, San Jose, Calif.) at 450 nm with wavelength correction at 540 nm. Absorbance of the standards was plotted versus the concentration to generate a standard curve using four-parameter algorithm curve fitting software (SOFTmax PRO application, Molecular Devices). pMER concentrations for unknown samples were determined by extrapolation from the standard curve. IC50 values were calculated by GraphPad Prism 7.0 using a nonlinear regression sigmoidal dose-response curve with variable slope.

CC(C)C(=O)N1CCC(c2cc(-c3ccc(NC(=O)c4cn(C(C)C)c(=O)n(-c5ccccn5)c4=O)cc3)c3c(N)ncnn23)CC1 [Compound 1, N-(4-(4-Amino-7-(1-isobutyrylpiperidin-4-yl)pyrrolo[1,2-f][1,2,4]triazin-5-yl)phenyl)-1-isopropyl-2,4-dioxo-3-(pyridin-2-yl)-1,2,3,4-tetrahydropyrimidine-5-carboxamide]
IC50: 8.3 ± 3.1 nM
